Assay results taken from ChEMBL document CHEMBL1201861, “Genomics of Drug Sensitity in Cancer screening data, Wellcome Trust Sanger Institute”.

What was measured:
Experiment in all cases: cells
AM-38 = type: functional, cell-based, Homo sapiens; settings: Homo sapiens, AM-38;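 further: growth inhibition of AM-38 cells of human origin, read out by a cell viability assay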
Description: SANGER: Inhibition of human AM-38 cell growth in a cell viability assay.

HuTu80 = type: functional, cell-based, Homo sapiens, HUTU-80; settings: Homo sapiens, HuTu80;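 further: growth inhibition of HuTu80 human cells, determined with a cell viability readout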
Description: SANGER: Inhibition of human HUTU-80 cell growth in a cell viability assay.

LS-123 = type: functional, cell-based, Homo sapiens; settings: Homo sapiens, LS-123
Description: SANGER: Inhibition of human LS-123 cell growth in a cell viability assay.

COR-L88 = type: functional, cell-based, Homo sapiens; settings: Homo sapiens, COR-L88;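 further: growth inhibition of COR-L88 cells, read out with a cell viability assay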
Description: SANGER: Inhibition of human COR-L88 cell growth in a cell viability assay.

SK-UT-1 = type: functional, cell-based, Homo sapiens; settings: Homo sapiens, SK-UT-1;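 further: growth inhibition of SK-UT-1 cells, measured by a cell viability assay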
Description: SANGER: Inhibition of human SK-UT-1 cell growth in a cell viability assay.

RH-1 = type: functional, cell-based, Homo sapiens; settings: Homo sapiens, RH-1;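 further: growth inhibition of human RH-1 cells, read out with a cell viability assay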
Description: SANGER: Inhibition of human RH-1 cell growth in a cell viability assay.

EW-24 = type: functional, cell-based, Homo sapiens; settings: Homo sapiens, EW-24;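 further: human EW-24 cancer cell line, growth inhibition read out via a cell viability assay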
Description: SANGER: Inhibition of human EW-24 cell growth in a cell viability assay.

TE-10 = type: functional, cell-based, Homo sapiens; settings: Homo sapiens, TE-10;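 further: growth inhibition of TE-10 cells, measured by a cell viability assay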
Description: SANGER: Inhibition of human TE-10 cell growth in a cell viability assay.

NB17 = type: functional, cell-based, Homo sapiens; settings: Homo sapiens, NB17;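 further: growth inhibition of NB17 cells, read out with a cell viability assay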
Description: SANGER: Inhibition of human NB17 cell growth in a cell viability assay.

EM-2 = type: functional, cell-based, Homo sapiens; settings: Homo sapiens, EM-2;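 further: growth inhibition of EM-2 cells, read out with a cell viability assay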
Description: SANGER: Inhibition of human EM-2 cell growth in a cell viability assay.

GI-ME-N = type: functional, cell-based, Homo sapiens; settings: Homo sapiens, GI-ME-N;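 further: growth inhibition of human GI-ME-N cells, read out with a cell viability assay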
Description: SANGER: Inhibition of human GI-ME-N cell growth in a cell viability assay.

TE-12 = type: functional, cell-based, Homo sapiens; settings: Homo sapiens, TE-12;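 further: growth inhibition of TE-12 cells, read out by a cell viability assay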
Description: SANGER: Inhibition of human TE-12 cell growth in a cell viability assay.

KALS-1 = type: functional, cell-based, Homo sapiens; settings: Homo sapiens, KALS-1;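 further: growth inhibition of KALS-1 cells, determined with a cell viability assay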
Description: SANGER: Inhibition of human KALS-1 cell growth in a cell viability assay.

NCI-H23 = type: functional, cell-based, Homo sapiens; settings: Homo sapiens, NCI-H23;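 further: cell viability assay measuring growth inhibition of NCI-H23 cells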
Description: SANGER: Inhibition of human NCI-H23 cell growth in a cell viability assay.

NCI-H1395 = type: functional, cell-based, Homo sapiens; settings: Homo sapiens, NCI-H1395;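 further: cell viability assay read-out quantifying reduced proliferation of human NCI-H1395 cells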
Description: SANGER: Inhibition of human NCI-H1395 cell growth in a cell viability assay.

ONS-76 = type: functional, cell-based, Homo sapiens; settings: Homo sapiens, ONS-76;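 further: growth inhibition of human ONS-76 cells, read out with a cell viability assay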
Description: SANGER: Inhibition of human ONS-76 cell growth in a cell viability assay.

ES1 = type: functional, cell-based, Homo sapiens; settings: Homo sapiens, ES1;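 further: growth inhibition of ES1 cells, read out with a cell viability assay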
Description: SANGER: Inhibition of human ES1 cell growth in a cell viability assay.

D-247MG = type: functional, cell-based, Homo sapiens; settings: Homo sapiens, D-247MG
Description: SANGER: Inhibition of human D-247MG cell growth in a cell viability assay.

A101D = type: functional, cell-based, Homo sapiens; settings: Homo sapiens, A101D;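 further: growth inhibition of the cell line, measured with a viability assay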
Description: SANGER: Inhibition of human A101D cell growth in a cell viability assay.

SW684 = type: functional, cell-based, Homo sapiens; settings: Homo sapiens, SW684;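 further: growth inhibition of human SW684 cells, measured by a cell viability assay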
Description: SANGER: Inhibition of human SW684 cell growth in a cell viability assay.

KE-37 = type: functional, cell-based, Homo sapiens; settings: Homo sapiens, KE-37;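 further: growth inhibition of KE-37 cells, read out with a cell viability assay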
Description: SANGER: Inhibition of human KE-37 cell growth in a cell viability assay.

NCI-H1355 = type: functional, cell-based, Homo sapiens; settings: Homo sapiens, NCI-H1355;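 further: growth inhibition of human NCI-H1355 cells, read out by a cell viability assay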
Description: SANGER: Inhibition of human NCI-H1355 cell growth in a cell viability assay.

COLO-829 = type: functional, cell-based, Homo sapiens; settings: Homo sapiens, COLO-829
Description: SANGER: Inhibition of human COLO-829 cell growth in a cell viability assay.

C2BBe1 = type: functional, cell-based, Homo sapiens; settings: Homo sapiens, C2BBe1;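 further: growth inhibition of C2BBe1 cells, read out through a viability assay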
Description: SANGER: Inhibition of human C2BBe1 cell growth in a cell viability assay.

BB49-HNC = type: functional, cell-based, Homo sapiens; settings: Homo sapiens, BB49-HNC;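 further: cell viability assay read-out, reported as inhibition of BB49-HNC cell growth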
Description: SANGER: Inhibition of human BB49-HNC cell growth in a cell viability assay.

HH = type: functional, cell-based, Homo sapiens; settings: Homo sapiens, HH
Description: SANGER: Inhibition of human HH cell growth in a cell viability assay.

KURAMOCHI = type: functional, cell-based, Homo sapiens; settings: Homo sapiens, KURAMOCHI;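 further: growth inhibition of KURAMOCHI cells, read out with a cell viability assay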
Description: SANGER: Inhibition of human KURAMOCHI cell growth in a cell viability assay.

OCUB-M = type: functional, cell-based, Homo sapiens; settings: Homo sapiens, OCUB-M;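 further: growth inhibition of the cancer cell line, read out through a cell viability assay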
Description: SANGER: Inhibition of human OCUB-M cell growth in a cell viability assay.

DOHH-2 = type: functional, cell-based, Homo sapiens; settings: Homo sapiens, DOHH-2;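 further: growth inhibition of human DOHH-2 cells, read out with a cell viability assay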
Description: SANGER: Inhibition of human DOHH-2 cell growth in a cell viability assay.

J-RT3-T3-5 = type: functional, cell-based, Homo sapiens; settings: Homo sapiens, J-RT3-T3-5;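 further: cell viability assay measuring growth inhibition of human J-RT3-T3-5 cells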
Description: SANGER: Inhibition of human J-RT3-T3-5 cell growth in a cell viability assay.

NCI-N87 = type: functional, cell-based, Homo sapiens; settings: Homo sapiens, NCI-N87;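 further: growth inhibition of human NCI-N87 cells, read out with a cell viability assay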
Description: SANGER: Inhibition of human NCI-N87 cell growth in a cell viability assay.

K5 = type: functional, cell-based, Homo sapiens; settings: Homo sapiens, K5
Description: SANGER: Inhibition of human K5 cell growth in a cell viability assay.

K562 = type: functional, cell-based, Homo sapiens; settings: Homo sapiens, K562
Description: SANGER: Inhibition of human K-562 cell growth in a cell viability assay.

JVM-2 = type: functional, cell-based, Homo sapiens; settings: Homo sapiens, JVM-2;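 further: growth inhibition of JVM-2 cells determined by a cell viability assay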
Description: SANGER: Inhibition of human JVM-2 cell growth in a cell viability assay.

NOMO-1 = type: functional, cell-based, Homo sapiens; settings: Homo sapiens, NOMO-1;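 further: growth inhibition of human NOMO-1 cells measured by a cell viability assay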
Description: SANGER: Inhibition of human NOMO-1 cell growth in a cell viability assay.

CGTH-W-1 = type: functional, cell-based, Homo sapiens; settings: Homo sapiens, CGTH-W-1;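 further: growth inhibition of human CGTH-W-1 cells measured by cell viability assay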
Description: SANGER: Inhibition of human CGTH-W-1 cell growth in a cell viability assay.

KNS-42 = type: functional, cell-based, Homo sapiens; settings: Homo sapiens, KNS-42;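 further: growth inhibition of KNS-42 cells, read out with a cell viability assay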
Description: SANGER: Inhibition of human KNS-42 cell growth in a cell viability assay.

SW 954 = type: functional, cell-based, Homo sapiens; settings: Homo sapiens, SW 954;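 further: growth inhibition of SW954 human cancer cells, read out as cell viability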
Description: SANGER: Inhibition of human SW954 cell growth in a cell viability assay.

RPMI-8866 = type: functional, cell-based, Homo sapiens; settings: Homo sapiens, RPMI-8866
Description: SANGER: Inhibition of human RPMI-8866 cell growth in a cell viability assay.

DB = type: functional, cell-based, Homo sapiens; settings: Homo sapiens, DB
Description: SANGER: Inhibition of human DB cell growth in a cell viability assay.

SK-MEL-1 = type: functional, cell-based, Homo sapiens; settings: Homo sapiens, SK-MEL-1;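 further: growth inhibition of human SK-MEL-1 cells, read out by a cell viability assay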
Description: SANGER: Inhibition of human SK-MEL-1 cell growth in a cell viability assay.

MV4-11 = type: functional, cell-based, Homo sapiens, MV-4-11; settings: Homo sapiens, MV4-11;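 further: cell viability readout measuring growth inhibition of human MV-4-11 cells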
Description: SANGER: Inhibition of human MV-4-11 cell growth in a cell viability assay.

NTERA-2-cl-D1 = type: functional, cell-based, Homo sapiens; settings: Homo sapiens, NTERA-2-cl-D1;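 further: inhibition of cell growth, measured with a cell viability assay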
Description: SANGER: Inhibition of human NTERA-S-cl-D1 cell growth in a cell viability assay.

COLO-684 = type: functional, cell-based, Homo sapiens; settings: Homo sapiens, COLO-684
Description: SANGER: Inhibition of human COLO-684 cell growth in a cell viability assay.

COLO-668 = type: functional, cell-based, Homo sapiens; settings: Homo sapiens, COLO-668
Description: SANGER: Inhibition of human COLO-668 cell growth in a cell viability assay.

TE-9 = type: functional, cell-based, Homo sapiens; settings: Homo sapiens, TE-9;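 further: cell growth inhibition, measured with a cell viability readout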
Description: SANGER: Inhibition of human TE-9 cell growth in a cell viability assay.

ML-2 = type: functional, cell-based, Homo sapiens; settings: Homo sapiens, ML-2;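 further: growth inhibition of ML-2 cells, measured with a cell viability readout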
Description: SANGER: Inhibition of human ML-2 cell growth in a cell viability assay.

NB5 = type: functional, cell-based, Homo sapiens; settings: Homo sapiens, NB5;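 further: growth inhibition of NB5 cells, read out as cell viability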
Description: SANGER: Inhibition of human NB5 cell growth in a cell viability assay.

RPMI-8226 = type: functional, cell-based, Homo sapiens; settings: Homo sapiens, RPMI-8226
Description: SANGER: Inhibition of human RPMI-8226 cell growth in a cell viability assay.

CO[C@H]1C[C@@H]2CC[C@@H](C)[C@@](O)(O2)C(=O)C(=O)N2CCCC[C@H]2C(=O)O[C@H]([C@H](C)C[C@@H]2CC[C@@H](OC(=O)C(C)(CO)CO)[C@H](OC)C2)CC(=O)[C@H](C)/C=C(\C)[C@@H](O)[C@@H](OC)C(=O)[C@H](C)C[C@H](C)/C=C/C=C/C=C/1C [TEMSIROLIMUS]
IC50 (AM-38): > 0.2 µM
IC50 (HuTu80): > 0.2 µM
IC50 (LS-123): > 0.2 µM
IC50 (COR-L88): > 0.2 µM
IC50 (SK-UT-1): 0.0641 µM
IC50 (RH-1): > 0.2 µM
IC50 (EW-24): > 0.2 µM
IC50 (TE-10): > 0.2 µM
IC50 (NB17): > 0.2 µM
IC50 (EM-2): 0.0542 µM
IC50 (GI-ME-N): > 0.2 µM
IC50 (TE-12): > 0.2 µM
IC50 (KALS-1): 0.149 µM
IC50 (NCI-H23): > 0.2 µM
IC50 (NCI-H1395): > 0.2 µM
IC50 (ONS-76): 0.033 µM
IC50 (ES1): 0.0245 µM
IC50 (D-247MG): > 0.2 µM
IC50 (A101D): 0.0487 µM
IC50 (SW684): > 0.2 µM
IC50 (KE-37): 0.0165 µM
IC50 (NCI-H1355): 0.0559 µM
IC50 (COLO-829): > 0.2 µM
IC50 (C2BBe1): > 0.2 µM
IC50 (BB49-HNC): > 0.2 µM
IC50 (HH): 0.000664 µM
IC50 (KURAMOCHI): > 0.2 µM
IC50 (OCUB-M): > 0.2 µM
IC50 (DOHH-2): 0.0168 µM
IC50 (J-RT3-T3-5): 0.0124 µM
IC50 (NCI-N87): 0.175 µM
IC50 (K5): 0.00133 µM
IC50 (K562): > 0.2 µM
IC50 (JVM-2): > 0.2 µM
IC50 (NOMO-1): 0.168 µM
IC50 (CGTH-W-1): 0.00575 µM
IC50 (KNS-42): > 0.2 µM
IC50 (SW 954): > 0.2 µM
IC50 (RPMI-8866): 0.0314 µM
IC50 (DB): 0.00312 µM
IC50 (SK-MEL-1): > 0.2 µM
IC50 (MV4-11): 0.0189 µM
IC50 (NTERA-2-cl-D1): 0.0207 µM
IC50 (COLO-684): 0.0133 µM
IC50 (COLO-668): > 0.2 µM
IC50 (TE-9): > 0.2 µM
IC50 (ML-2): > 0.2 µM
IC50 (NB5): 0.111 µM
IC50 (RPMI-8226): 0.00415 µM

Nc1cccc2c1CN(C1CCC(=O)NC1=O)C2=O (configuration not stated) [LENALIDOMIDE]
IC50 (AM-38): > 5 µM
IC50 (HuTu80): > 5 µM
IC50 (LS-123): > 5 µM
IC50 (COR-L88): > 5 µM
IC50 (SK-UT-1): > 5 µM
IC50 (RH-1): > 5 µM
IC50 (EW-24): > 5 µM
IC50 (TE-10): > 5 µM
IC50 (NB17): > 5 µM
IC50 (EM-2): > 5 µM
IC50 (GI-ME-N): > 5 µM
IC50 (TE-12): > 5 µM
IC50 (KALS-1): > 5 µM
IC50 (NCI-H23): > 5 µM
IC50 (NCI-H1395): > 5 µM
IC50 (ONS-76): > 5 µM
IC50 (ES1): > 5 µM
IC50 (D-247MG): > 5 µM
IC50 (A101D): > 5 µM
IC50 (SW684): > 5 µM
IC50 (KE-37): > 5 µM
IC50 (NCI-H1355): > 5 µM
IC50 (COLO-829): > 5 µM
IC50 (C2BBe1): > 5 µM
IC50 (BB49-HNC): > 5 µM
IC50 (HH): > 5 µM
IC50 (KURAMOCHI): > 5 µM
IC50 (OCUB-M): > 5 µM
IC50 (DOHH-2): > 5 µM
IC50 (J-RT3-T3-5): > 5 µM
IC50 (NCI-N87): > 5 µM
IC50 (K5): > 5 µM
IC50 (K562): > 5 µM
IC50 (JVM-2): > 5 µM
IC50 (NOMO-1): > 5 µM
IC50 (CGTH-W-1): > 5 µM
IC50 (KNS-42): > 5 µM
IC50 (SW 954): > 5 µM
IC50 (RPMI-8866): > 5 µM
IC50 (DB): > 5 µM
IC50 (SK-MEL-1): > 5 µM
IC50 (MV4-11): > 5 µM
IC50 (NTERA-2-cl-D1): > 5 µM
IC50 (COLO-684): > 5 µM
IC50 (COLO-668): > 5 µM
IC50 (TE-9): > 5 µM
IC50 (ML-2): > 5 µM
IC50 (NB5): > 5 µM
IC50 (RPMI-8226): > 5 µM

COc1cc2ncn(-c3cc(OCc4ccccc4S(C)(=O)=O)c(C#N)s3)c2cc1OC [GSK-319347A]
IC50 (AM-38): > 5 µM
IC50 (HuTu80): > 5 µM
IC50 (LS-123): > 5 µM
IC50 (COR-L88): > 5 µM
IC50 (SK-UT-1): > 5 µM
IC50 (RH-1): > 5 µM
IC50 (EW-24): > 5 µM
IC50 (TE-10): > 5 µM
IC50 (NB17): > 5 µM
IC50 (EM-2): > 5 µM
IC50 (GI-ME-N): > 5 µM
IC50 (TE-12): > 5 µM
IC50 (KALS-1): > 5 µM
IC50 (NCI-H23): > 5 µM
IC50 (NCI-H1395): > 5 µM
IC50 (ONS-76): > 5 µM
IC50 (ES1): > 5 µM
IC50 (D-247MG): > 5 µM
IC50 (A101D): > 5 µM
IC50 (SW684): > 5 µM
IC50 (KE-37): > 5 µM
IC50 (NCI-H1355): > 5 µM
IC50 (COLO-829): > 5 µM
IC50 (C2BBe1): > 5 µM
IC50 (BB49-HNC): > 5 µM
IC50 (HH): > 5 µM
IC50 (KURAMOCHI): > 5 µM
IC50 (OCUB-M): > 5 µM
IC50 (DOHH-2): > 5 µM
IC50 (J-RT3-T3-5): > 5 µM
IC50 (NCI-N87): > 5 µM
IC50 (K5): > 5 µM
IC50 (K562): > 5 µM
IC50 (JVM-2): > 5 µM
IC50 (NOMO-1): > 5 µM
IC50 (CGTH-W-1): > 5 µM
IC50 (KNS-42): > 5 µM
IC50 (SW 954): > 5 µM
IC50 (RPMI-8866): > 5 µM
IC50 (DB): > 5 µM
IC50 (SK-MEL-1): > 5 µM
IC50 (MV4-11): > 5 µM
IC50 (NTERA-2-cl-D1): > 5 µM
IC50 (COLO-684): > 5 µM
IC50 (COLO-668): > 5 µM
IC50 (TE-9): > 5 µM
IC50 (ML-2): > 5 µM
IC50 (NB5): > 5 µM
IC50 (RPMI-8226): > 5 µM
